Laboratory results taken from patent US9271965B2, “Crystalline forms of (R)-3-[N-(3'-chlorobiphenyl-4-ylmethyl)-N'-(3-hydroxyisoxazole-5-carbonyl)hydrazino]-2-hydroxyproprionic acid isopropyl ester” (Theravance Biopharma R&D IP, LLC, priority 2012, dated 2016).

Columns and labels:
Format in all cases: physicochemical
[1] = Heat induced decomposition by DSC and TGA; conditions: 10° C. per minute, nitrogen purge
Procedure: (§1) The crystalline compounds were subjected to temperature scan using a TA Instruments Q100 differential scanning calorimeter equipped with a refrigerated cooling system. Samples were loaded into aluminum pans with crimped lids. In most cases, the samples were heated to 250° C. at a rate of 10° C. per minute under a purge of nitrogen gas. The data acquisition was controlled by Thermal Advantage software Release 5.1.2 and the data were analyzed with Universal Analysis 2000 software (version 4.7A).
as §1, with “Q500 thermal gravimetric analyzer.” for “Q100 differential scanning calorimeter equipped with a refrigerated cooling system.”, “platinum” for “aluminum”, “and” for “with crimped lids. In most cases, the samples were”

[2] = Dynamic moisture sorption (DMS) assessment; conditions: for solid form (PXRD) after moisture sorption-desorption: PXRD before and after the DMS experiment; for hygroscopicity: from DMS profile, Form 1 per European Pharmacopoeia Technical Guide classification; for hysteresis between sorption and desorption: two cycles of water sorption and desorption
Procedure: In one embodiment, the crystalline neutral monohydrate Form 1 is characterized by the DMS profile in FIG. 4. Samples of Form 1 were subjected to isothermal moisture sorption analysis at 25° C. […] The step-like profile at 40-60% RH may indicate capillary condensation. At 90% RH, the total moisture uptake was ˜0.5%.
In one embodiment, the crystalline neutral Form 2 is characterized by the DMS profile in FIG. 11. Samples of Form 2 were subjected to isothermal moisture sorption analysis at 25° C. With increasing relative humidity, the amount of water adsorbed by the solid increased gradually up to 75% RH and steeply between 75%-90% RH […].
In one embodiment, the crystalline neutral anhydrous Form 3 is characterized by the DMS profile in FIG. 29. The DMS thermogram of Form 3 is similar to that of Form 2 (FIG. 11). […] The sample, however, loses the adsorbed water during desorption segment and returns to an anhydrous state. Overlay of the PXRD patterns of the sample before and after it was subjected the moisture sorption-desorption experiment is shown in FIG. 30. […] Form 3, like Form 2, is hygroscopic.
In one embodiment, the crystalline neutral anhydrous Form 4 is characterized by the DMS profile in FIG. 37. […] Form-4 is non-hygroscopic. […] Form 4, which is obtained from the monohydrate Form 1, is non-hygroscopic, whereas Form 3, which is obtained from anhydrous Form 2, is hygroscopic. […] Overlay of the PXRD patterns of the sample before and after it was subjected the moisture sorption-desorption experiment is shown in FIG. 30.
Moisture sorption and desorption data on the crystalline compounds were collected on a VTI SGA-100 Vapor Sorption Analyzer. Sorption and desorption data were collected over a range of 5% to 90% relative humidity (RH) at 5% RH intervals. Equilibrium criteria used for analysis were less than 0.01% weight change in 5 minutes, with a maximum equilibration time of three hours if the weight criterion was not met. Samples were subjected to initial drying or desorption steps to 5% RH followed by the sorption-desorption cycle. Data were collected at a time interval of two minutes or 0.01% change in weight.

[3] = Retention of lattice water under ambient conditions and under high vacuum
[4] = Slurry of Form 2 in water, analysis by PXRD; conditions: slurried in water (e.g., deionized water) for five days
From the text: This experiment established that Form 2 is metastable to the monohydrate Form 1 in solutions containing water. Thus, in yet another embodiment, the crystalline neutral monohydrate Form 1 can be prepared by (a″) reslurrying the crystalline neutral Form 2 in water or an aqueous solution; (b″) heating then cooling the resulting slurry; (c″) optionally stirring or sonicating to complete dissolution; and allowing solids to form and isolating the solids to yield the crystalline neutral monohydrate Form 1. […] Step (a″) is typically conducted by first treating Form 2 with methanol, and subsequently adding water as an anti-solvent to form a slurry. Step (b″) generally involves heating the slurry to a temperature within the range of about 55-75° C., and in one embodiment to about 60° C. The cooling in step (b″) is generally to about room temperature.

[5] = Exposure of Form 2 to 84% relative humidity, analysis by PXRD; conditions: 84% RH for seven days
From the text: In one experiment, a sample of Form 2 was exposed to 84% RH for seven days. […] This experiment established that Form 2 is metastable to the monohydrate Form 1 in high relative humidities (>75% RH). Accordingly, in another embodiment, the crystalline neutral monohydrate Form 1 can be prepared by (a′) exposing the crystalline neutral Form 2 to high humidity; and in one embodiment exposing Form 2 to about >75% relative humidity, typically for about 5-7 days.

Row | heat induced decomposition temperature [1] [°C] | hygroscopicity [2] | total moisture uptake ([2]; isothermal moisture sorption at 25° C., at 90% RH) [%] | hysteresis between sorption and desorption [2] | loss of lattice water ([3]; exposed to ambient conditions for more than a month) | loss of lattice water ([3]; placed in high vacuum for more than 24 hours) | total quantity of water taken up in the DMS experiment ([2]; DMS, 25° C.) | solid form after slurrying in water [4] | solid form after exposure to high humidity [5] | water taken up between 75% RH and 90% RH ([2]; DMS, between 75% RH and 90% RH) | water taken up when exposed up to 90% RH ([2]; DMS, up to 90% RH) | Structure (SMILES) | solid form (PXRD) after moisture sorption-desorption [2]
1 | > 175 | slightly hygroscopic | ~0.5 | did not show hysteresis | did not lose lattice water | did not lose lattice water |  |  |  |  |  | CC(C)OC(=O)[C@H](O)CN(Cc1ccc(-c2cccc(Cl)c2)cc1)NC(=O)c1cc(O)no1 [Form 1, (R)-3-[N-(3′-chlorobiphenyl-4-ylmethyl)-N′-(3-hydroxyisoxazole-5-carbonyl)hydrazino]-2-hydroxypropionic acid isopropyl ester] | did not show any change in their PXRD pattern
2 | > 175 | hygroscopic |  | showed distinct hysteresis |  |  | 3.5-3.6% | PXRD pattern consistent with Form 1 | converts to Form 1 at high humidities |  |  | CC(C)OC(=O)[C@H](O)CN(Cc1ccc(-c2cccc(Cl)c2)cc1)NC(=O)c1cc(O)no1 [Form 2, (R)-3-[N-(3′-chlorobiphenyl-4-ylmethyl)-N′-(3-hydroxyisoxazole-5-carbonyl)hydrazino]-2-hydroxypropionic acid isopropyl ester] | showed a PXRD pattern that matched with the starting material
3 |  | hygroscopic |  |  |  |  |  |  |  | about 3.5% |  | CC(C)OC(=O)[C@H](O)CN(Cc1ccc(-c2cccc(Cl)c2)cc1)NC(=O)c1cc(O)no1 [Form 3, (R)-3-[N-(3′-chlorobiphenyl-4-ylmethyl)-N′-(3-hydroxyisoxazole-5-carbonyl)hydrazino]-2-hydroxypropionic acid isopropyl ester] | returns to the same solid form after moisture sorption and desorption
4 |  | non-hygroscopic |  | no hysteresis |  |  |  |  |  |  | less than 0.1 % by weight | CC(C)OC(=O)[C@H](O)CN(Cc1ccc(-c2cccc(Cl)c2)cc1)NC(=O)c1cc(O)no1 [Form 4, (R)-3-[N-(3′-chlorobiphenyl-4-ylmethyl)-N′-(3-hydroxyisoxazole-5-carbonyl)hydrazino]-2-hydroxypropionic acid isopropyl ester] | retained its solid-state structure
